pKi: −log10 of the molar value. Several values for one entry are separate records, joined by “and”; a condition that tells them apart may be missing. Equal values may be shown once. Read-outs that look alike come from different tables or passages of the source.
Key:
[1] = target: single-chain tethered dimer of HIV protease (Human immunodeficiency virus 1, UniProt P04585); assay: biochemical; format: biochemical
Description: HIV Protease Inhibition Assay—HPLC Method
Active protease was prepared as described therein by extraction with 67% acetic acid, dilution 33-fold with water, dialysis against water and then against a “refolding buffer” consisting of 20 mM MES, 1 mM dithiothreitol and 10% glycerol. Protease was stored as a stock preparation at 10 uM in refolding buffer.
Substrate: Peptide of sequence: aminobenzoyl-Ala-Thr-His-Gln-Val-Tyr-Phe(NO2)-Val-Arg-Lys-Ala containing p-nitrophenylalanine, was prepared by solid phase synthesis as previously described Cheng et al., op.cit. Stock solutions of 2 mM substrate were prepared in DMSO.
Inhibitory compounds were dissolved in sufficient DMSO to make 3 mM stock solutions. All further dilutions were prepared in “assay buffer”: 1M NaCl, 50 mM MES, pH 5.5, 1 mM EDTA, 1 mM DTT, […] glycerol.
Enzyme reaction: In a 2 ml screw-cap centrifuge tube were added 50 ul protease (final concentration 0.25 nM) and 0.1 ml inhibitory compound (final concentration […]). After 15 min preincubation at room temperature, the reaction was started with the addition of 0.05 ml substrate (final concentration 5 uM). Incubation was carried out at 30 C. for 1 hr. The reaction was stopped with 1 ml 0.1M ammonium hydroxide.
HPLC measurement of product formation: The product (aminobenzoyl-Ala-Thr-His-Gln-Val-Tyr) was separated from substrate on a Pharmacia MonoQ anion exchange column. The injection volume was 0.2 ml. The mobile phases were: A (20 mM trisHCl, pH 9.0, 0.02% sodium Azide, 10% acetonitrile), B (20 mM tris HCl, pH 9.0, 0.02% sodium azide, 0.5M ammonium formate, 10% acetonitrile). The mobile phases were pumped at 1 ml/min, with a gradient from 0 to 30% B in 5 min, 100% B for 4 min to wash the column, and a re-equilibration for 4 min. The retention time of the product was 3.6 min. Detection with a Shimadzu model RF535 fluorescence monitor was at 330 nm (excitation) and 430 (emission).

[2] = system: HIV-1 (RF) in MT-2 cells; assay: microbe, parasite or virus in culture; format: cell-based; conditions: HIV-1 infected MT-2 cells, class symbols
Summary of the method: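 HIV-1 laboratory strains (RF, MN, IIIB) grown in H9 cells in RPMI 1640 with 5% FCS; infections in MT-2 cells. Viral RNA quantified by hybridization with biotinylated gag/pol capture probes on streptavidin plates and alkaline phosphatase-conjugated reporter probes; BH10 gag-pol in vitro transcripts serve as RNA standards.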

[3] = Human immunodeficiency virus 1, MT2, HIV RNA assay, read-out: IC90
[4] = HIV protease inhibition, class symbols, read-out: Ki

SMILES	pKi [1]	IC90 [2, 3] [µg/mL]	melting point	pKi [1, 4]	IC90 ([2]; HIV RNA assay)
C=CCN1C(=O)N(Cc2ccc3ccccc3c2)C(Cc2ccccc2)C(O)C(O)C1Cc1ccccc1 (stereo not drawn) [Example 4S]	> 8.00	< 10	72 to 74 °C	–	–
C=CCN1C(=O)NC(Cc2ccccc2)C(O)C(O)C1Cc1ccccc1 (stereo not drawn) [Example 5A]	< 6.00	–	180 to 182 °C	–	–
CCN1C(=O)N(Cc2ccccc2)C(Cc2ccccc2)C(O)C(O)C1Cc1ccccc1 (stereo not drawn) [Example 4A]	> 8.00	< 10	190 to 193 °C	–	–
O=C1N(Cc2cccc(Br)c2)C(Cc2ccccc2)C(O)C(O)C(Cc2ccccc2)N1Cc1cccc(Br)c1 (stereo not drawn) [Example 6ZE]	> 8.00	< 10	210.7 °C	–	–
O=C1N(Cc2ccc(-c3ccccc3)cc2)C(Cc2ccccc2)C(O)C(O)C(Cc2ccccc2)N1Cc1ccc(-c2ccccc2)cc1 (stereo not drawn) [Example 4R]	6.00 to 8.00	–	109 to 110 °C	–	–
O=C1N(Cc2cccc(OCc3ccccc3)c2)C(Cc2ccccc2)C(O)C(O)C(Cc2ccccc2)N1Cc1cccc(OCc2ccccc2)c1 (stereo not drawn) [Example 5F]	6.00 to 8.00	–	165 to 166 °C	–	–
COCCN1C(=O)N(CCOC)C(Cc2ccccc2)C(O)C(O)C1Cc1ccccc1 (stereo not drawn) [Example 3N]	6.00 to 8.00	> 100	183 to 185 °C	–	–
O=C1N(Cc2ccc(OCc3ccccc3)cc2)C(Cc2ccccc2)C(O)C(O)C(Cc2ccccc2)N1Cc1ccc(OCc2ccccc2)cc1 (stereo not drawn) [Example 5P]	< 6.00	> 100	80 to 81 °C	–	–
C=CCOc1cccc(CN2C(=O)N(Cc3cccc(O)c3)C(Cc3ccccc3)C(O)C(O)C2Cc2ccccc2)c1 (stereo not drawn) [Example 5M]	> 8.00	< 10	78 to 79 °C	–	–
CC(C)(C)CCN1C(=O)N(CCC(C)(C)C)C(Cc2ccccc2)C(O)C(O)C1Cc1ccccc1 (stereo not drawn) [Example 3P]	6.00 to 8.00	> 100	242 to 245 °C	–	–
O=C1N(Cc2c(F)c(F)c(F)c(F)c2F)C(Cc2ccccc2)C(O)C(O)C(Cc2ccccc2)N1Cc1c(F)c(F)c(F)c(F)c1F (stereo not drawn) [Example 4J]	< 6.00	< 10	193 to 195 °C	–	–
O=C1NC(Cc2ccccc2)C(O)C(O)C(Cc2ccccc2)N1Cc1ccc2ccccc2c1 (stereo not drawn) [Example 4V]	> 8.00	< 10	210 to 213 °C	–	–
O=C1N(Cc2ccc(O)cc2)C(Cc2ccccc2)C(O)C(O)C(Cc2ccccc2)N1Cc1ccc(O)cc1 (stereo not drawn) [Example 5R]	> 8.00	< 10	115 to 117 °C	–	–
CCCCN1C(=O)N(Cc2ccc3ccccc3c2)C(Cc2ccccc2)C(O)C(O)C1Cc1ccccc1 (stereo not drawn) [Example 4U]	> 8.00	< 10	78 to 80 °C	–	–
CC(C)N1C(=O)N(Cc2cccc(O)c2)C(Cc2ccccc2)C(O)C(O)C1Cc1ccccc1 (stereo not drawn) [Example 5Z]	> 8.00	< 10	212 to 213 °C	–	–
O=Cc1cccc(CN2C(=O)N(Cc3cccc(C=O)c3)C(Cc3ccccc3)C(O)C(O)C2Cc2ccccc2)c1 (stereo not drawn) [Example 5V]	> 8.00	< 10	175 to 176 °C	–	–
O=C1NC(Cc2ccccc2)C(O)C(O)C(Cc2ccccc2)N1Cc1ccccc1 (stereo not drawn) [Example 6o]	> 8.00	< 10	–	–	–
CC(C)N1C(=O)N(Cc2ccccn2)C(Cc2ccccc2)C(O)C(O)C1Cc1ccccc1 (stereo not drawn) [Example 6L]	6.00 to 8.00	< 10	–	–	–
C=CCN1C(=O)N(CC2CCCC2)C(Cc2ccccc2)C(O)C(O)C1Cc1ccccc1 (stereo not drawn) [Example 5B]	–	–	–	> 8.00	+++ (+++=<10 μg/mL)
O=C1N(Cc2ccc(F)c(F)c2)C(Cc2ccccc2)C(O)C(O)C(Cc2ccccc2)N1Cc1ccc(F)c(F)c1 (stereo not drawn) [Example 6S]	> 8.00	< 10	–	–	–

SMILES	pKi [1]	IC90 [2, 3] [µg/mL]	melting point	pKi [1, 4]	IC90 ([2]; HIV RNA assay)
O=C1N(CC2CCC2)C(Cc2ccccc2)C(O)C(O)C(Cc2ccccc2)N1CC1CCC1 (stereo not drawn) [Example 6G]	> 8.00	< 10	–	–	–
O=C1c2ccccc2C(O)C(O)c2ccccc21 (stereo not drawn) [Example 26A, 5H-dibenzo [A,D] cyclohepten-5-one-10,11-dihydro-10, 11-diol]	< 6.00	–	107.5 to 108 °C and 107.5 to 107.9 °C	–	–
O=C1N(Cc2cccnc2)C(Cc2ccccc2)C(O)C(O)C(Cc2ccccc2)N1Cc1cccnc1 (stereo not drawn) [Example 5O]	> 8.00	< 10	–	–	–
O=C1N(Cc2ccc(Cl)cc2)C(Cc2ccccc2)C(O)C(O)C(Cc2ccccc2)N1Cc1ccc(Cl)cc1 (stereo not drawn) [Example 6U]	> 8.00	< 10	–	–	–
COc1ccc(CN2C(=O)N(Cc3ccc(OC)cc3)C(Cc3ccccc3)C(O)C(O)C2Cc2ccccc2)cc1 (stereo not drawn) [Example 6M]	–	–	–	6.00 to 8.00	+++ (+++=<10 μg/mL)
O=C1N(Cc2ccc(Cl)s2)C(Cc2ccccc2)C(O)C(O)C(Cc2ccccc2)N1Cc1ccc(Cl)s1 (stereo not drawn) [Example 6F]	–	–	–	6.00 to 8.00	+++ (+++=<10 μg/mL)
COC(=O)c1cccc(CN2C(=O)N(Cc3cccc(C(=O)OC)c3)C(Cc3ccccc3)C(O)C(O)C2Cc2ccccc2)c1 (stereo not drawn) [Example 5T]	> 8.00	< 10	–	–	–
CC(C)N1C(=O)N(Cc2ccc(O)cc2)C(Cc2ccccc2)C(O)C(O)C1Cc1ccccc1 (stereo not drawn) [Example 5Y]	–	–	–	> 8.00	+++ (+++=<10 μg/mL)
O=C(O)c1cccc(CN2C(=O)N(Cc3cccc(C(=O)O)c3)C(Cc3ccccc3)C(O)C(O)C2Cc2ccccc2)c1 (stereo not drawn) [Example 6A]	–	–	–	> 8.00	+++ (+++=<10 μg/mL)
O=C1N(CC2CCCCC2)C(Cc2ccccc2)C(O)C(O)C(Cc2ccccc2)N1CC1CCCCC1 (stereo not drawn) [Example 3O]	–	–	–	6.00 to 8.00	+ (+=>100 μg/mL)
O=C1N(Cc2ccccc2)C(Cc2ccccc2)C(O)C(O)C(Cc2ccccc2)N1Cc1ccc2ccccc2n1 (stereo not drawn) [Example 4O]	6.00 to 8.00	< 10	–	–	–
CCCCN1C(=O)N(CC=C(C)C)C(Cc2ccccc2)C(O)C(O)C1Cc1ccccc1 (stereo not drawn) [Example 6I]	–	–	–	> 8.00	+++ (+++=<10 μg/mL)
[2H]c1c([2H])c([2H])c(C([2H])([2H])N2C(=O)N(C([2H])([2H])c3c([2H])c([2H])c([2H])c([2H])c3[2H])C(Cc3ccccc3)C(O)C(O)C2Cc2ccccc2)c([2H])c1[2H] (stereo not drawn) [Example 4H]	> 8.00	< 10	–	–	–
O=C1N(Cc2ccc3ccccc3c2)C(Cc2ccccc2)C(O)C(O)C(Cc2ccccc2)N1Cc1ccc2ccccc2c1 (stereo not drawn) [Example 3U]	> 8.00	< 10	–	–	–
CCCCN1C(=O)N(CC2CCCC2)C(Cc2ccccc2)C(O)C(O)C1Cc1ccccc1 (stereo not drawn) [Example 6J]	> 8.00	< 10	–	–	–
O=C1N(Cc2ccccc2)C(Cc2ccccc2)C(O)C(O)C(Cc2ccccc2)N1Cc1ccncc1 (stereo not drawn) [Example 4B]	> 8.00	< 10	–	–	–
O=C1N(Cc2ccc(Br)cc2)C(Cc2ccccc2)C(O)C(O)C(Cc2ccccc2)N1Cc1ccc(Br)cc1 (stereo not drawn) [Example 6ZG]	6.00 to 8.00	< 10	–	–	–
CC(=O)Nc1cccc(CN2C(=O)N(Cc3cccc(NC(C)=O)c3)C(Cc3ccccc3)C(O)C(O)C2Cc2ccccc2)c1 (stereo not drawn) [Example 6ZN]	> 8.00	< 10	–	–	–
O=C1N(Cc2ccc(O)c(O)c2)C(Cc2ccccc2)C(O)C(O)C(Cc2ccccc2)N1Cc1ccc(O)c(O)c1 (stereo not drawn) [Example 6ZQ]	> 8.00	< 10	–	–	–
O=CNc1cccc(CN2C(=O)N(Cc3cccc(NC=O)c3)C(Cc3ccccc3)C(O)C(O)C2Cc2ccccc2)c1 (stereo not drawn) [Example 6ZM]	> 8.00	< 10	–	–	–
